# Laboratory results published in a melting point compilation (Tetko et al.).
row,melting point [°C],SMILES
1,182 to 184,Cc1cccc(NC(=O)NCC(=O)O)c1
2,80 to 82,CCN(CC)C(=O)c1cccc(O)c1
3,59 to 61,COCc1ccccc1S(N)(=O)=O
4,230 to 232,O=C(O)c1cccc(CN2CCS(=O)(=O)CC2)c1
5,179 to 181,CCc1c(C(=O)O)nnn1-c1cccc(N)c1
6,169 to 171,Cc1cc(S(=O)(=O)Cl)cc(C(=O)O)c1Cl
7,159 to 161,O=C(O)CNC(=O)N1CCc2ccccc2C1
8,143 to 145,CC(=O)c1cccc(S(N)(=O)=O)c1
9,156 to 158,O=C(O)c1cc(CCc2ccccc2)ccc1O
10,184 to 186,CCN(CC)S(=O)(=O)c1ccc(C=CC(=O)O)cc1
11,213 to 215,O=C(O)c1ccc(N2CCCCC2=O)cc1
12,82 to 84,CCN(CC)S(=O)(=O)c1cccc(NC(=O)CCl)c1
13,75 to 77,CS(=O)(=O)Nc1ccccc1F
14,249 to 251,O=C(O)c1cccc(S(=O)(=O)Nc2ccc3c(c2)OCO3)c1
15,124 to 126,COc1ccc2cc(C=CC#N)ccc2c1
16,134 to 136,COC(=O)C(=O)CN1C(=O)c2ccccc2C1=O
17,69 to 71,CC(=CC(=O)O)c1ccccc1OC(F)F
18,94 to 96,CC(C)(C)c1ccc(OCCC(=O)O)cc1
19,106 to 108,NCc1ccc(OCC(N)=O)cc1
20,57 to 59,O=S(=O)(Cl)c1cnn(Cc2ccccc2)c1
21,134 to 136,Cc1cc(S(=O)(=O)Cl)ccc1-n1cnnn1
22,156 to 158,O=C(O)CN1CCOc2ccc(Cl)cc21

row,melting point [°C],SMILES
1,254 to 256,COc1cc(C(=O)O)sc1S(N)(=O)=O
2,127 to 129,Cc1ccsc1C(=O)Nc1ccc(O)cc1
3,205 to 207,N#CC(=Cc1ccc2c(c1)OCO2)C(=O)O
4,102 to 104,O=C(O)COc1ccccc1-c1ccccc1
5,93 to 95,CS(=O)(=O)c1cccc(NN)c1
6,213 to 215,O=C(O)CNCc1cccc(Br)c1
7,228 to 230,O=C1COc2ccc(C(=O)/C=C/c3ccccc3)cc2N1
8,235 to 237,CC1(c2ccc([N+](=O)[O-])cc2)NC(=O)NC1=O (stereo not given)
9,234 to 236,CCn1c(CCl)nc2cc(S(=O)(=O)N3CCCCC3)ccc21
10,119 to 121,CCOc1cc(Cl)ccc1C(=O)O
11,182 to 189,CCN(CC)S(=O)(=O)c1ccc(=O)n(CC(=O)O)c1
12,200 to 202,CS(=O)(=O)c1cccc(Cl)c1C(N)=O
13,75 to 77,O=C(O)CNS(=O)(=O)c1ccc2c(c1)OCCCO2
14,103 to 105,O=C(CCl)NCC(=O)c1ccccc1Br
15,193 to 195,CN(C)S(=O)(=O)c1ccc(N)c(N)c1
16,138 to 140,CC(Oc1ccccc1Br)C(=O)O (stereo not given)
17,94 to 96,O=C(O)Cc1cccc(OCc2cccc(Cl)c2)c1
18,81 to 83,CC(=CC(=O)O)c1ccccc1C
19,151 to 153,Cc1cc(C(=O)O)c(C)n1Cc1ccccn1
20,344 to 346,Cc1cccc(-n2c(=O)[nH]c3cc(C(=O)O)ccc3c2=O)c1
21,178 to 180,O=C(O)Cn1c(=O)oc2ccccc21
22,101 to 103,O=C(O)Cc1cc(Cl)ccc1Cl

# The next lines start with the compound.
row,SMILES,melting point [°C]
1,Nc1cc(C2CCCC2)nn1-c1ccccc1,80 to 82
2,CNC1CCN(c2ccc(Cl)cc2)CC1,49 to 51
3,Nc1ccccc1C(=O)NCCc1ccccc1,110 to 112
4,O=C(Nc1ccccc1)C1CCN(C(=O)CCl)CC1,143 to 145
5,CNCC(=O)N(C)c1ccccn1,108 to 110
6,OC1(CCOc2ccccc2)CC1,57 to 59
7,COc1ccc(-c2noc(CCC(=O)O)n2)cc1OC,120 to 122
8,O=C(O)c1ccc2c(c1)CCC2,173 to 175
9,Nc1nc2cc3c(cc2s1)OCCCO3,218 to 220
10,O=C(O)c1ccc(COc2ccc(Cl)cc2)cc1,201 to 203
11,COCCC(NC(C)=O)C(=O)O (stereo not given),152 to 154
12,O=C(O)c1nnn(-c2cccc(Br)c2)c1C(F)(F)F,154 to 156
13,Nc1nnc(C23CC4CC(CC(C4)C2)C3)s1,197 to 199
14,ClCc1coc(-c2ccccc2Br)n1,46 to 48
15,NC(=O)Nc1ccc2c(c1)OCCO2,159 to 161
16,CC(C)(C)OC(=O)N1CCN(c2ccc(Cl)nn2)CC1,162 to 164
17,CC(C)(C)OC(=O)NCC1CCCCC1O (stereo not given),57 to 59
18,Clc1ccc(C(Cl)c2ccc(Cl)cc2)cc1,57 to 59
19,CNS(=O)(=O)c1c[nH]c(=O)[nH]c1=O,279 to 281
20,CC(Cl)C(=O)Nc1c(F)c(F)c(F)c(F)c1F (stereo not given),123 to 125
21,Cc1n[nH]c(C)c1C1COCCN1 (stereo not given),127 to 129
22,O=C(O)c1cnsn1,167 to 169
23,O=C1NC(=O)C(c2cc(Br)ccc2F)N1 (stereo not given),194 to 196
24,Cc1ccc(Nc2nnc(S)s2)cc1C,181 to 183
25,Nc1cc(-c2cccs2)nn1-c1ccccc1,121 to 123
26,Fc1cccc(F)c1-n1c(S)nc2ccccc21,255 to 257

row,SMILES,melting point [°C]
1,Nc1ccccc1C(=O)Nc1ccc2c(c1)OCO2,85 to 87
2,COC(=O)c1c(NC(=O)CCl)sc2c1CCC2,98 to 100
3,Cc1sc2nc(S)n(C(C)C)c(=O)c2c1C,270 to 272
4,O=C(O)c1nnc2c(C(F)(F)F)cccn12,139 to 141
5,NC(=O)Cn1cc(N)cn1,159 to 161
6,Nc1nonc1C(=O)N1CCCCC1,86 to 88
7,O=C(O)CCCSc1nc2ccccc2[nH]1,120 to 122
8,Cc1nn2c(=O)cc(CCl)nc2s1,210 to 212
9,Nc1ccc(N2CCN(S(=O)(=O)C(F)F)CC2)cc1,110 to 112
10,C/C(N)=C\C#N,4 to 6
11,Cc1ccsc1C(=O)Nc1ccc2c(c1)CCCN2,135 to 137
12,Cn1ccnc1C(O)(CC(=O)O)C(F)(F)F (stereo not given),186 to 188
13,CC1=NN(Cc2ccc(Cl)cc2Cl)C(=O)C1,128 to 130
14,Cc1ncc(NC(=O)OC(C)(C)C)s1,147 to 149
15,CC12CCCC(C(=O)O)(CCC1)C2,144 to 146
16,COC(=O)c1ccc(C(=O)O)o1,194 to 196
17,CCc1c(C)sc(N)c1C#N,103 to 105
18,Nc1nnc(Cc2cccc(F)c2)o1,146 to 148
19,O=C(O)c1n[nH]c2ccc(Cl)cc12,271 to 273
20,Cc1cc(C)n(CCCCl)n1,202 to 204
21,Cn1nc(Br)c2c(NN)ncnc21,198 to 200
22,O=C(O)c1ccc(Oc2ccc(F)cc2[N+](=O)[O-])c(Cl)c1,155 to 157
23,O=C(CCl)N1CCSc2ccccc21,53 to 55
24,N#CCC(=O)c1ccc2c(c1)OCO2,134 to 136
25,Cc1sc2ccccc2c1S(=O)(=O)Cl,117 to 119
26,CC(=O)Nc1ccc(Cl)cc1N,141 to 143

row,SMILES,melting point [°C]
1,Nc1ccc(N2CCNC2=O)cc1,171 to 173
2,OCCN(Cc1ccccc1)Cc1ccccc1,41 to 43
3,O=C1OCCN1c1cc([N+](=O)[O-])ccc1Cl,157 to 159
4,CC(C)(C)C(=O)N1CSCC1C(=O)O (stereo not given),118 to 120
5,CC(C)(C)OC(=O)Nc1cocn1,108 to 110
6,CNC1(C(N)=O)CCCC1,99 to 101
7,Nc1nnc(CC(F)(F)F)o1,132 to 134
8,Nc1cc(Br)cc(Cl)c1O,79 to 81
9,NC(=Nc1ccccc1)N1CCCCC1,61 to 63
10,CC(C)c1nc2ccccc2n1CC#N,116 to 118
11,NC(=S)Cc1cn2cc(Cl)cc(Cl)c2n1,189 to 191
12,S=C1Nc2ccccc2C2CC=NN12 (stereo not given),249 to 251
13,Cc1sc(N)c(C(N)=O)c1C,179 to 181
14,CN1C(=O)CCC(C(N)=O)C1c1cccs1 (stereo not given),179 to 181
15,O=C(O)c1cc(O)nc2ccc(Br)cc12,355 to 357
16,Nn1cncn1,64 to 66
17,CC(C)c1ccc(-n2nnnc2S)cc1,100 to 102
18,Nc1nn(C(=O)c2ccccc2Br)c2ccccc12,224 to 226
19,NC(=NO)c1cccc(F)c1,73 to 75
20,Cc1ccnc2c1NC(=O)CN2,216 to 218
21,Cc1cc(-n2cccc2)ccc1C(=O)O,150 to 152
22,O=c1[nH]c(-c2cccc(C(F)(F)F)c2)cs1,182 to 184
23,Nc1ccccc1C(=O)N1CCCC1,85 to 89
24,Cn1cc(C2NC(=O)CCC2N)cn1 (stereo not given),164 to 166
25,O=C(O)CN1CCC(=O)NC1=O,197 to 199
26,O=Cc1c[nH]c(-c2ccccc2)n1,159 to 161

row,SMILES,melting point [°C]
1,O=C(O)CSCC(=O)N1CCCCC1,91 to 93
2,Cn1cc(C(=O)Nc2ccc(O)cc2)cn1,231 to 233
3,COC(=O)c1cc(C(=O)OC)cc(-n2c(C)cc(C(=O)CCl)c2C)c1,153 to 155
4,Cc1ccc(Nc2nnc(S)s2)cc1,219 to 221
5,Nc1cccc(NC(=O)C2CC2)c1,133 to 135
6,CC(O)(CN)c1cccs1 (stereo not given),55 to 57
7,CNc1snc(C)c1C(=O)OC,56 to 58
8,CC(=O)c1cccc(N2C(=O)C=CC2=O)c1,104 to 106
9,COc1ccc(CC2CCNCC2)cc1,55 to 57
10,COc1cccc(CC(C(=O)O)n2nnnc2C)c1 (stereo not given),125 to 127
11,Cc1cc(-c2cccc(F)c2)nnc1Cl,132 to 134
12,NC(=O)NC(=O)OCCCCl,165 to 167
13,CC(=O)c1c(Cl)nc2sccn12,159 to 161
14,Cc1ccc(C2(C)NC(=O)NC2=O)c(C)c1 (stereo not given),144 to 146
15,Nc1nc(Cc2ccccc2)ns1,133 to 135
16,O=C1C=CC(=O)N1c1cccc2ccccc12,103 to 105
17,Nc1ccc(N2C(=O)CCC2=O)cc1,239 to 241
18,c1cc(-c2nnco2)ccn1,119 to 121
19,COc1ccc(Br)cc1Cl,69 to 71
20,NC(=O)C1(O)Cc2ccccc2C1,186 to 188
21,CC1(c2cccc(Cl)c2)NC(=O)NC1=O (stereo not given),200 to 202
22,CC(C)(C)OC(=O)NCC1CCCCS1(=O)=O (stereo not given),97 to 99
23,CC(C)(C)OC(=O)N1CCc2n[nH]c(=O)cc2C1,187 to 189
